≈ marks a conversion by molar mass, not a printed value. Calls of active or inactive are those of the source. No cut-off for these calls is given here.
Legend:
Escherichia coli [1] = experiment: Antibacterial activity against Escherichia coli MTCC 1573 assessed as growth inhibition after 24 hr by tube dilution method; format: functional; settings: MTCC 1573, 24 h
Micrococcus luteus [2] = experiment: Antibacterial activity against Micrococcus luteus MTCC 1538 assessed as growth inhibition at 100 ug/mL after 48 hr by agar diffusion method; format: functional
Penicillium chrysogenum [3] = experiment: Antifungal activity against Penicillium chrysogenum MTCC 161 assessed as growth inhibition at 500 ug/mL after 48 hr by agar diffusion method; format: functional; settings: MTCC 161, 48 h, read-out: DIZ
Pseudomonas aeruginosa [4] = experiment: Antibacterial activity against Pseudomonas aeruginosa MTCC 424 assessed as growth inhibition at 750 ug/mL after 48 hr by agar diffusion method; format: functional; settings: MTCC 424, 48 h, read-out: DIZ
Bacillus subtilis [5] = experiment: Antibacterial activity against Bacillus subtilis MTCC 441 assessed as growth inhibition at 250 ug/mL after 48 hr by agar diffusion method; format: functional; settings: MTCC 441, 48 h, read-out: DIZ
Escherichia coli [6] = experiment: Antibacterial activity against Escherichia coli MTCC 1573 assessed as growth inhibition at 750 ug/mL after 48 hr by agar diffusion method; format: functional; settings: MTCC 1573, 48 h, read-out: DIZ
Pseudomonas aeruginosa [7] = experiment: Antibacterial activity against Pseudomonas aeruginosa MTCC 424 assessed as growth inhibition at 1250 ug/mL after 48 hr by agar diffusion method; format: functional; settings: MTCC 424, 48 h, read-out: DIZ
Pseudomonas fluorescens [8] = experiment: Antibacterial activity against Pseudomonas fluorescens MTCC 2421 assessed as growth inhibition at 250 ug/mL after 48 hr by agar diffusion method; format: functional; settings: MTCC 2421, 48 h, read-out: DIZ
Aspergillus niger [9] = experiment: Antifungal activity against Aspergillus niger MTCC 2546 assessed as growth inhibition at 1250 ug/mL after 48 hr by agar diffusion method; format: functional; settings: MTCC 2546, 48 h, read-out: DIZ
Pseudomonas fluorescens [10] = experiment: Antibacterial activity against Pseudomonas fluorescens MTCC 2421 assessed as growth inhibition at 500 ug/mL after 48 hr by agar diffusion method; format: functional; settings: MTCC 2421, 48 h, read-out: DIZ
Pseudomonas aeruginosa [11] = experiment: Antibacterial activity against Pseudomonas aeruginosa MTCC 424 assessed as growth inhibition at 1000 ug/mL after 48 hr by agar diffusion method; format: functional; settings: MTCC 424, 48 h, read-out: DIZ
Pseudomonas fluorescens [12] = experiment: Antibacterial activity against Pseudomonas fluorescens MTCC 2421 assessed as growth inhibition at 1000 ug/mL after 48 hr by agar diffusion method; format: functional; settings: MTCC 2421, 48 h, read-out: DIZ
Bacillus pumilus [13] = experiment: Antibacterial activity against Bacillus pumilus MTCC 1456 assessed as growth inhibition at 750 ug/mL after 48 hr by agar diffusion method; format: functional; settings: MTCC 1456, 48 h, read-out: DIZ
Staphylococcus aureus [14] = experiment: Antibacterial activity against Staphylococcus aureus MTCC 1430 assessed as growth inhibition at 1000 ug/mL after 48 hr by agar diffusion method; format: functional; settings: MTCC 1430, 48 h, read-out: DIZ
Pseudomonas fluorescens [15] = experiment: Antibacterial activity against Pseudomonas fluorescens MTCC 2421 assessed as growth inhibition after 24 hr by tube dilution method; format: functional; settings: MTCC 2421, 24 h
Micrococcus luteus [16] = experiment: Antibacterial activity against Micrococcus luteus MTCC 1538 assessed as growth inhibition at 750 ug/mL after 48 hr by agar diffusion method; format: functional; settings: MTCC 1538, 48 h, read-out: DIZ
Penicillium chrysogenum [17] = experiment: Antifungal activity against Penicillium chrysogenum MTCC 161 assessed as growth inhibition at 1000 ug/mL after 48 hr by agar diffusion method; format: functional; settings: MTCC 161, 48 h, read-out: DIZ
Bacillus subtilis [18] = experiment: Antibacterial activity against Bacillus subtilis MTCC 441 assessed as growth inhibition at 750 ug/mL after 48 hr by agar diffusion method; format: functional; settings: MTCC 441, 48 h, read-out: DIZ
Staphylococcus aureus [19] = experiment: Antibacterial activity against Staphylococcus aureus MTCC 1430 assessed as growth inhibition at 750 ug/mL after 48 hr by agar diffusion method; format: functional; settings: MTCC 1430, 48 h, read-out: DIZ
Staphylococcus aureus [20] = experiment: Antibacterial activity against Staphylococcus aureus MTCC 1430 assessed as growth inhibition after 24 hr by tube dilution method; format: functional; settings: MTCC 1430, 24 h
Aspergillus niger [21] = experiment: Antifungal activity against Aspergillus niger MTCC 2546 assessed as growth inhibition at 750 ug/mL after 48 hr by agar diffusion method; format: functional; settings: MTCC 2546, 48 h, read-out: DIZ
Bacillus pumilus [22] = experiment: Antibacterial activity against Bacillus pumilus MTCC 1456 assessed as growth inhibition at 250 ug/mL after 48 hr by agar diffusion method; format: functional; settings: MTCC 1456, 48 h, read-out: DIZ
Bacillus subtilis [23] = experiment: Antibacterial activity against Bacillus subtilis MTCC 441 assessed as growth inhibition at 100 ug/mL after 48 hr by agar diffusion method; format: functional
Bacillus pumilus [24] = experiment: Antibacterial activity against Bacillus pumilus MTCC 1456 assessed as growth inhibition at 1000 ug/mL after 48 hr by agar diffusion method; format: functional; settings: MTCC 1456, 48 h, read-out: DIZ
Pseudomonas fluorescens [25] = experiment: Antibacterial activity against Pseudomonas fluorescens MTCC 2421 assessed as growth inhibition at 1250 ug/mL after 48 hr by agar diffusion method; format: functional; settings: MTCC 2421, 48 h, read-out: DIZ
Escherichia coli [26] = experiment: Antibacterial activity against Escherichia coli MTCC 1573 assessed as growth inhibition at 500 ug/mL after 48 hr by agar diffusion method; format: functional; settings: MTCC 1573, 48 h, read-out: DIZ
Escherichia coli [27] = experiment: Antibacterial activity against Escherichia coli MTCC 1573 assessed as growth inhibition at 1250 ug/mL after 48 hr by agar diffusion method; format: functional; settings: MTCC 1573, 48 h, read-out: DIZ
Pseudomonas fluorescens [28] = experiment: Antibacterial activity against Pseudomonas fluorescens MTCC 2421 assessed as growth inhibition at 100 ug/mL after 48 hr by agar diffusion method; format: functional; settings: MTCC 2421, 48 h, read-out: DIZ
Pseudomonas aeruginosa [29] = experiment: Antibacterial activity against Pseudomonas aeruginosa MTCC 424 assessed as growth inhibition at 500 ug/mL after 48 hr by agar diffusion method; format: functional; settings: MTCC 424, 48 h, read-out: DIZ
Micrococcus luteus [30] = experiment: Antibacterial activity against Micrococcus luteus MTCC 1538 assessed as growth inhibition after 24 hr by tube dilution method; format: functional; settings: MTCC 1538, 24 h
Escherichia coli [31] = experiment: Antibacterial activity against Escherichia coli MTCC 1573 assessed as growth inhibition at 250 ug/mL after 48 hr by agar diffusion method; format: functional; settings: MTCC 1573, 48 h, read-out: DIZ
Penicillium chrysogenum [32] = experiment: Antifungal activity against Penicillium chrysogenum MTCC 161 assessed as growth inhibition after 24 hr by tube dilution method; format: functional; settings: MTCC 161, 24 h
Bacillus subtilis [33] = experiment: Antibacterial activity against Bacillus subtilis MTCC 441 assessed as growth inhibition at 500 ug/mL after 48 hr by agar diffusion method; format: functional; settings: MTCC 441, 48 h, read-out: DIZ
Pseudomonas aeruginosa [34] = experiment: Antibacterial activity against Pseudomonas aeruginosa MTCC 424 assessed as growth inhibition at 250 ug/mL after 48 hr by agar diffusion method; format: functional; settings: MTCC 424, 48 h, read-out: DIZ
Aspergillus niger [35] = experiment: Antifungal activity against Aspergillus niger MTCC 2546 assessed as growth inhibition at 100 ug/mL after 48 hr by agar diffusion method; format: functional, organism-based
Staphylococcus aureus [36] = experiment: Antibacterial activity against Staphylococcus aureus MTCC 1430 assessed as growth inhibition at 500 ug/mL after 48 hr by agar diffusion method; format: functional; settings: MTCC 1430, 48 h, read-out: DIZ
Penicillium chrysogenum [37] = experiment: Antifungal activity against Penicillium chrysogenum MTCC 161 assessed as growth inhibition at 1250 ug/mL after 48 hr by agar diffusion method; format: functional; settings: MTCC 161, 48 h, read-out: DIZ
Bacillus pumilus [38] = experiment: Antibacterial activity against Bacillus pumilus MTCC 1456 assessed as growth inhibition after 24 hr by tube dilution method; format: functional; settings: MTCC 1456, 24 h
Staphylococcus aureus [39] = experiment: Antibacterial activity against Staphylococcus aureus MTCC 1430 assessed as growth inhibition at 250 ug/mL after 48 hr by agar diffusion method; format: functional; settings: MTCC 1430, 48 h, read-out: DIZ

For `O=C1CSC(c2ccccn2)N1c1nnc2c3cc(Cl)ccc3nc-2s1` (centres undefined), the MIC (Escherichia coli [1]) was 150 µg/mL (≈ 375 µM), the “growth inhibition (GI)” value (Micrococcus luteus [2]) was “inactive” and the zone of inhibition at 500 µg/mL (Penicillium chrysogenum [3]) was 12 mm. It also gave a zone of inhibition at 750 µg/mL (Pseudomonas aeruginosa [4]) of 15 mm, a zone of inhibition at 250 µg/mL (Bacillus subtilis [5]) of 7 mm and a zone of inhibition at 750 µg/mL (Escherichia coli [6]) of 15 mm. The zone of inhibition at 1250 µg/mL (Pseudomonas aeruginosa [7]) was 20 mm, the zone of inhibition at 250 µg/mL (Pseudomonas fluorescens [8]) was 8 mm and the zone of inhibition at 1250 µg/mL (Aspergillus niger [9]) was 20 mm. For the same compound, the zone of inhibition at 500 µg/mL (Pseudomonas fluorescens [10]) was 11 mm, the zone of inhibition at 1000 µg/mL (Pseudomonas aeruginosa [11]) was 18 mm and the zone of inhibition at 1000 µg/mL (Pseudomonas fluorescens [12]) was 17 mm. The zone of inhibition at 750 µg/mL (Bacillus pumilus [13]) was 18 mm, the zone of inhibition at 1000 µg/mL (Staphylococcus aureus [14]) was 13 mm and the MIC (Pseudomonas fluorescens [15]) was 50 µg/mL (≈ 125 µM). It also gave a zone of inhibition at 750 µg/mL (Micrococcus luteus [16]) of 12 mm, a zone of inhibition at 1000 µg/mL (Penicillium chrysogenum [17]) of 18 mm and a zone of inhibition at 750 µg/mL (Bacillus subtilis [18]) of 14 mm. It also gave a zone of inhibition at 750 µg/mL (Staphylococcus aureus [19]) of 11 mm, an MIC (Staphylococcus aureus [20]) of 250 µg/mL (≈ 625 µM) and a zone of inhibition at 750 µg/mL (Aspergillus niger [21]) of 15 mm. The zone of inhibition at 250 µg/mL (Bacillus pumilus [22]) was 13 mm, the “growth inhibition (GI)” value (Bacillus subtilis [23]) was “inactive” and the zone of inhibition at 1000 µg/mL (Bacillus pumilus [24]) was 20 mm. It also gave a zone of inhibition at 1250 µg/mL (Pseudomonas fluorescens [25]) of 21 mm, a zone of inhibition at 500 µg/mL (Escherichia coli [26]) of 12 mm and a zone of inhibition at 1250 µg/mL (Escherichia coli [27]) of 23 mm. The zone of inhibition at 100 µg/mL (Pseudomonas fluorescens [28]) was 7 mm, the zone of inhibition at 500 µg/mL (Pseudomonas aeruginosa [29]) was 13 mm and the MIC (Micrococcus luteus [30]) was 250 µg/mL (≈ 625 µM). The zone of inhibition at 250 µg/mL (Escherichia coli [31]) was 11 mm, the MIC (Penicillium chrysogenum [32]) was 200 µg/mL (≈ 500 µM) and the zone of inhibition at 500 µg/mL (Bacillus subtilis [33]) was 9 mm. The zone of inhibition at 250 µg/mL (Pseudomonas aeruginosa [34]) was 10 mm, the “growth inhibition (GI)” value (Aspergillus niger [35]) was “inactive” and the zone of inhibition at 500 µg/mL (Staphylococcus aureus [36]) was 9 mm. The zone of inhibition at 1250 µg/mL (Penicillium chrysogenum [37]) was 20 mm, the MIC (Bacillus pumilus [38]) was 50 µg/mL (≈ 125 µM) and the zone of inhibition at 250 µg/mL (Staphylococcus aureus [39]) was 7 mm.

Source: ChEMBL document CHEMBL3046001, “4-Thiazolidinone and 1-thia-3,4,9-triaza fluorene conjugates: synthesis, characterization and antimicrobial screening” (2013)
